Test results from patent US20030175678A1, “Methods for identifying genes regulating desired cell phenotypes” (priority 2001, published 2003).

Legend:
[1] = system: C. barkleyi suspension culture; assay: Differential induction of catechin accumulation in Crassula barkleyi suspension culture; assay type: cell-based; conditions: B49 medium, treated seven days after inoculation, sampled for 17 days
Experimental: Differential induction of catechin derivatives in the C. barkleyi suspension culture was performed in 250 mL conical flasks containing 100 mL of a secondary metabolite production medium B49 (Gamborg's B5, with 5% sucrose, and no hormones), inoculated with 16 mL of 14 day old suspension culture. The cultures were incubated under low light conditions (approximately 30 lux) at 25° C. for seven days after inoculation. Cultures were then treated using one of each of the following protocols (untreated cultures were also maintained as controls):
(2) Autoclaved aqueous 2,4-D (1 mg/L final concentration) was added;
(4) Filter-sterilized aqueous DL-phenylalanine (200 mg/L) was added;
(6) Filter-sterilized aqueous zeatin (10 μM) was added;
(7) Filter-sterilized aqueous 1-aminocyclopropane-1-carboxylic acid (10 mg/L final concentration) was added;
(8) Filter-sterilized 24-epibrassinolide (1 mg/L final concentration) was added;
(9) Incubation at a temperature of 16° C.; or (10) High light regime (approximately 160 lux).
Ten milliliter culture samples were taken at regular intervals for 17 days following the day of subculture to B49 medium. All culture samples were centrifuged for five minutes at 4000 rpm, and the cell residue was freeze-dried. Extraction, sample preparation, and HPLC analysis were performed as described in Example 1.

PAL, CHS, and F3-OH = assay: Quantitative RT-PCR of PAL, CHS and F3-OH transcripts in C. barkleyi cells; assay type: cell-based, Crassula barkleyi; conditions: after 24 hours of treatment, relative to TBP
Experimental: Differential induction of mRNA transcripts associated with the synthesis of catechin derivatives in the C. barkleyi suspension culture (as described in Example 2) and the C. dejecta suspension culture (as described in Example 3) were performed in 250 mL conical flasks containing 100 mL of a secondary metabolite production medium B49 (Gamborg's B5, 5% sucrose, no hormones), inoculated with 16 mL of a 14 day old suspension culture (C. barkleyi) or 40 mL of a 21 day old suspension culture (C. dejecta). The cultures were incubated under low light conditions (approximately 30 lux) at 25° C.
Induction of mRNA usually occurs within 48 hours of receipt of an inducing signal. Accordingly, samples were taken at intervals of 2, 4, 6, 10, 15, 24, and 48 hours following the above treatments. Samples, sufficient to give at least 1 mL packed cell volume, were centrifuged for five minutes at 4000 rpm and the supernatant removed. […]
This mixture was incubated at 42° C. for 50 min then denatured at 70° C. for 15 min and stored at −20° C., after a thirty-fold dilution with distilled water. An aliquot of this reaction was then used to quantify the relative abundance of each of the three genes (PAL, CHS, F3-OH) to the invariant one (TBP), using a real time quantification PCR machine (Perkin Elmer 7700) and the previously described oligonucleotides (shown in FIG. 7) in the following conditions: […]

[2] = system: S. tectorum suspension culture; assay: Catechin profiling in Sempervivum tectorum suspension culture; assay type: cell-based; conditions: B49 medium, added on day 7
Experimental: Catechin derivative profiles in the S. tectorum suspension culture were obtained from incubations in 250 mL conical flasks containing either 100 mL of B88 growth medium or 100 mL of a secondary metabolite production medium B49 (Gamborg's B5 modified to contain 5% sucrose and no hormones) inoculated with 40 mL of 21 day old suspension culture. The cultures were incubated under low light conditions (approximately 30 lux) at 25° C.
Ten milliliters of culture samples were taken at regular intervals for 16 days following the day of subculture to B88 or B49 medium. All culture samples were centrifuged for five minutes at 4000 rpm and the supernatant liquid was removed and frozen. The cell residue was freeze-dried. Extraction, sample preparation, and HPLC analysis were performed as described in Example 1.

taxadiene synthase = assay: PCR of taxadiene synthase in Taxus baccata callus cultures; assay type: cell-based; conditions: callus harvested 24 and 48 hours after treatment, 20-25 PCR cycles
Experimental: Callus was harvested 24 and 48 hours after treatment. An untreated control was also harvested. Samples (500 mg) were frozen in liquid nitrogen and ground to a fine powder. RNA was prepared with an RNEASY™ kit (Qiagen, Valencia, Calif.) as described above.
RNA samples (1.75 μg) from 24 hours post-treatment cultures of Taxus baccata were reverse transcribed using an OMNISCRIPT™ RT kit (Qiagen) with an oligo-dT12-18 primer (Sigma-Aldrich Company, Poole, Dorset, UK). Aliquots (≡0.175 μg RNA) were subject to PCR using a Taq PCR Master Mix kit (Qiagen). Primers were designed from conserved regions of the taxadiene synthases from Taxus chinensis and Taxus brevifolia, and validated by amplification of DNA from Taxus baccata. PCR was carried out at an annealing temperature of 50° C. for 30′; extension was for 1 min at 72° C. Samples were taken after 15, 20, 25, and 30 cycles and run on an agarose gel (FIG. 13). After 20 cycles, a band of the expected size is present in the treated samples (slightly more in the 24 hour harvest) but not in the control.

## CC/C=C\CC1C(=O)CCC1CC(=O)OC (stereo not shown) [methyl jasmonate]
[1]
  catechin biosynthesis and EGCG accumulation: induced catechin biosynthesis and EGCG accumulation
PAL, CHS, and F3-OH
  induction of transcription of PAL, CHS, and F3-OH: at least twenty fold
[2]
  catechin level: no further increase in catechin level
Taxadiene synthase
  induction of taxadiene cyclase: specific induction of the taxadiene cyclase
